Source: patent publication US10932484B2, “Inhibitory activity of acetogenins against Listeria monocytogenes” (INSTITUTO TECHNOLOGICO Y DE ESTUDIOS SUPERIORES DE MONTERREY, priority 2016, dated 2021)
Values after ≈ are worked out from the molar mass of the structure shown.

What was measured:
[1] = system: Listeria monocytogenes (ATCC 35152); assay: Disc diffusion assay; assay type: cell-based; details: for Inhibition zones of isolated acetogenins (in words): isolated molecules at 15 μg disc^−1, 37° C., 24 h; for Potency relative to Mirenat® in disc diffusion: 15 μg disc^−1 vs Mirenat® at 15 μg disc^−1 LAE
Description: Listeria monocytogenes (ATCC 35152) was acquired from the American Type Culture Collection (Manassas, Va., USA). For experimentation, frozen stocks were first activated in Brain Heart Infusion (BHI) broth (Becton, Dickinson and Co., Franklin Lakes, N.J., USA) for 16-18 h at 37° C. A sub-culture was prepared under the same growth conditions to 3⁄4 log phase (6-7 h). At this stage, cells were adjusted with BHI to an initial optical density (OD) at 600 nm of 0.15, which corresponded to 8×10^6 CFU mL^-1 and served as the inoculum for the following antimicrobial assays. Aliquots (100 μL) of the cell suspension described above were evenly spread with a sterile plastic rod on the surface of agar plates. Sterile filter paper disks (Whatman No. 1, 6 mm) were impregnated with aliquots (5 μL) of the antimicrobial solution (EAE, Avosafe® and isolated acetogenins) freshly prepared at 3000 ppm in 96% food grade ethanol to delivered 15 μg disc^-1 of active compounds. All solutions were sonicated for 5 min (Branson 2510, Branson Ultrasonics, Danbury, Conn., USA) and vortexed for 30 s before dispensing the corresponding volumes. The disks were air-dried for approximately 1 h in a biological safety cabinet before placed into the inoculated plate. Antimicrobials were tested in triplicate, one disk per plate to account for plate variability. Vehicle and positive controls were also incorporated into each plate and contemplated 5 μl of 96% ethanol and […]® at 3000 ppm LAE in sterile deionized water. Each plate contained at most six disks evenly distributed. Plates were incubated for 24 h at 37° C. After, diameters of inhibition zones were measured to the nearest millimeter.

[2] = system: Listeria monocytogenes (ATCC 35152); assay: Minimum inhibitory concentration (MIC) and minimum bactericidal concentration (MBC), broth dilution; assay type: cell-based; details: 37° C.; for MBC/MIC ratio: ≤4 bactericidal, >4 bacteriostatic; for MBC / MIC: Listeria monocytogenes, ATCC35152, 24 h
Description: Listeria monocytogenes (ATCC 35152) was acquired from the American Type Culture Collection (Manassas, Va., USA). For experimentation, frozen stocks were first activated in Brain Heart Infusion (BHI) broth (Becton, Dickinson and Co., Franklin Lakes, N.J., USA) for 16-18 h at 37° C. A sub-culture was prepared under the same growth conditions to ¾ log phase (6-7 h). At this stage, cells were adjusted with BHI to an initial optical density (OD) at 600 nm of 0.15, which corresponded to 8×10^6 CFU mL^−1 and served as the inoculum for the following antimicrobial assays.
Stock solutions (25000-5000 ppm) of EAE, Avosafe® and isolated molecules were prepared in ≥99.5% food-grade propylene glycol (PG) (Sigma Aldrich, St. Louis, Mo., USA) and stored in brown vials at −80° C. Working solutions in culture media were prepared from room temperature acclimatized stock solutions that were sonicated (5 min) and vortexed (30 s) as described above. Culture medium was adjusted to 4% w/v PG to account for the effect of the vehicle in all concentrations tested and sets of experiments. Prior tests were conducted to confirm that 4% PG had no effect on growth. Serial 2-fold dilutions of samples, in a range of concentrations from 125 to 0.98 ppm, were prepared in sterile 96-well clear polystyrene microplates (Cat. No. 3370, Corning, Corning, N.Y., USA) or disposable test tubes (VWR, Radnor, Pa., USA) to a final volume of 300 μL or 1 mL, respectively. The experimentation scale was determined by the amount of test product available. Each well or tube was inoculated with 10% v/v liquid phase of the cell suspension (OD600 nm 0.15) as previously described. A growth control (no antimicrobial added), an aseptic control (uninoculated), and a positive control (Mirenat®) were also examined. After 24 h at 37° C., the MIC was defined as the lowest concentration at which no visual growth was assessed by turbidity (Levison, M. E., “Pharmacodynamics of Antimicrobial Drugs,” Infect. Dis. Clin. North. Am. 18(3):451-65 (2004), which is hereby incorporated by reference in its entirety). […] Then, the pellet was resuspended in antimicrobial-free medium and incubated for 24 h at 37° C. The MBC was defined as the lowest concentration showing no growth (Levison, M. E., “Pharmacodynamics of Antimicrobial Drugs,” Infect. Dis. Clin. North. Am. 18(3):451-65 (2004), which is hereby incorporated by reference in its entirety). All tests were independently replicated (n=3) and performed with technical triplicates.

[3] = Effect of thermal processing and storage on acetogenins concentration in sausages; assay type: physicochemical; details: sausages with 10,000 ppm Avosafe®, cooking and pasteurization
Source text: Effect of thermal processing and storage on acetogenins concentration. Acetogenins in sausages (Treatment A: un-cooked, day 0 and 90) were extracted and quantified as reported by Salinas-Salazar et al, “Inhibitory Activity of Avocado Seed Fatty Acid Derivatives (Acetogenins) Against Listeria Monocytogenes” J Food Sci 82: 134-44 (2016), which is hereby incorporated by reference in its entirety, with some modifications. Three grams (3 g) of sample were homogenized with acetone (1:5, w/v) using an Ultra-Turrax T25 homogenizer (IKA Works, Willmington, N.C., USA.) at 11000 rpm for 3 min, sonicated for 5 min, and centrifuged at 3600 rpm for 6 min (5° C.). Supernatants were collected and the precipitated material was extracted again two times, as mentioned above. After, supernatants were mixed and the solvent was evaporated at 35° C. using a rotary evaporator (Büchi R-210, Büchi Labortechnik AG, Switzerland) under high vacuum (22 in Hg). Residue was partitioned in 10 mL hexane:methanol (1:1). After 30 s of vortex, phases were separated by centrifugation (4000 rpm, 10 min) and the lower phase (methanol) was recovered and washed two more times with hexane, taken to dryness under nitrogen gas, resuspended in 1 mL isopropanol and passed through a 0.45 μm PTFE filter prior to HPLC injection. Agilent HPLC systems (Santa Clara, Calif., USA) 1260 Infinity series coupled to a G4212B photodiode array detector (PDA) and an evaporative light scattering detector G4218A was used. The PDA detector was set at 220 and 208 nm (Rodríguez-López, “A Targeted Metabolomics Approach to Characterize Acetogenin Profiles in Avocado Fruit (Persea americana Mill.)” RSC Adv 5: 106019-29 (2015), which is hereby incorporated by reference in its entirety).

[4] = system: C. sporogenes; details: cited from earlier work
[5] = lactating mice; cited from earlier work
[6] = dose of 100 mg kg^−1 of body weight; cited from earlier work

In the case of `C#CCC/C=C/CCCCCCC[C@H](O)CC(O)COC(C)=O` (stereo in doubt) [AcO-avocadenyne, 1-acetoxy-2,4-dihydroxy-heptadec-12-en-16-yne], the “Antimicrobial activity relative to AcO-avocadene” value ([1]; 15 μg disc^−1, FIG. 4) is reported as 4 times, the MBC/MIC ratio [2] is reported as 2 and the MBC [2] is reported as 31.2 µg/mL (≈ 96.2 µM). It also gave an MIC [2] of 15.6 µg/mL (≈ 48.1 µM).

With `C=CCCCCCCCCCC=CC(O)CC(O)COC(C)=O` (stereo not drawn) [AcO-avocadiene A, 1-Acetoxy-2,4-dihydroxy-heptadeca-5,16-diene] the “Inhibition zones of isolated acetogenins (in words)” value (“Inhibition zones” for short) [1] was “did not produce inhibition zones” and the “Processing losses compared to unprocessed control (in words)” value [3] was “no statistically significant”.

For `CCCCC/C=C\C/C=C\CCCCCCCC(=O)C[C@@H](O)COC(C)=O` [Persin, (2R,12Z,15Z)-1-acetoxy-2-hydroxy-4-oxoheneicosa-12,15-diene], the “Antimicrobial activity against C. sporogenes (in words)” value [4] is given as “minimal”, the Toxic acute doses [5] is given as 60-100 mg kg^−1 body weight and the “Effect in liver injury (in words)” value [6] is given as “protective effect”.

For `C=CCCCCCCCCCCC[C@H](O)C[C@H](O)COC(C)=O` [AcO-avocadene, (2S,4S)-1-acetoxy-2,4-dihydroxy-n-heptadeca-16-ene], the “Inhibition zones” value [1] was “least potent” and the “Processing losses compared to unprocessed control (in words)” value [3] was “no statistically significant”.

For `CCCCC/C=C\C/C=C\CCCCC/C=C/C(=O)C[C@@H](O)COC(C)=O` [Persenone A, (2R,5E,12Z,15Z)-1-acetoxy-2-hydroxy-4-oxoheneicosa-5,12,15-triene], the “Potency relative to Mirenat® in disc diffusion” value [1] was “around 3 fold”, the “Inhibition zones” value [1] was “highest inhibition zones” and the MBC/MIC ratio [2] was 2. For the same molecule, the MBC [2] was 15.6 µg/mL (≈ 41.2 µM), the MIC [2] was 7.8 µg/mL (≈ 20.6 µM) and the “Processing losses compared to unprocessed control (in words)” value [3] was “no statistically significant”.

With `CC/C=C/CCCCCCCCC/C=C/C(=O)C[C@@H](O)COC(C)=O` [Persenone C, (2R,5E,16E)-1-acetoxy-2-hydroxy-4-oxononadeca-5,16-diene] the “Potency relative to Mirenat® in disc diffusion” value [1] was “around 3 fold” and the “Inhibition zones” value [1] was “highest inhibition zones”.

With `C#CCCCCCCCCCCCC(O)CC(O)COC(C)=O` (stereo not drawn) [AcO-avocadyne, 1-acetoxy-2,4-dihydroxy-heptadec-16-yne] the “Inhibition zones” value [1] was “did not produce inhibition zones”.

In the case of `CCCCCCCCCCCCC/C=C/C(=O)C[C@@H](O)COC(C)=O` [Persenone B, (5E)-1-acetoxy-2-hydroxy-4-oxononadeca-5-ene], the “Processing losses compared to unprocessed control (in words)” value [3] is reported as “no statistically significant”.
